Test results published in publication PMC5291402 (The Plant Pathology Journal, 2017).
Values after ≈ are worked out from the molar mass of the structure shown.

Key:
[1] = test system: Xanthomonas citri subsp. citri 19-18 (XscW1), WT; assay: Streptomycin MIC/MBC of the strains used; type: cell-based
[2] = test system: Xanthomonas citri subsp. citri 10-5 (XscW2), WT; assay: Streptomycin MIC/MBC of the strains used; type: cell-based
[3] = test system: Xanthomonas citri subsp. citri 8-4 (XcsM5), rpsL41 (K42R in S12); type: cell-based
[4] = test system: Xanthomonas citri subsp. citri 57-2 (XcsM6), strB located in Tn5393; assay: Streptomycin MIC/MBC of the strains used; type: cell-based
[5] = test system: Xanthomonas citri subsp. citri 27-13 (XcsM8), rpsL41 & strB double mutant; type: cell-based
wild type strains of Xcc = assay: Streptomycin MIC, wild type strains; type: cell-based, Xanthomonas citri subsp. citri; details: Xanthomonas citri, read-out: MICs of wild type strains of Xcc
wild type strain XccW2 = type: in vivo, Xanthomonas citri subsp. citri
SR strain XccM8 = type: in vivo, Xanthomonas citri subsp. citri; details: 50 μg/ml or 100 μg/ml, SR mutant XccM8, citrus leaves

[H]/N=C(/N)N[C@H]1[C@H](O)[C@@H](O)[C@H](O[C@@H]2O[C@@H](C)[C@](O)(C=O)[C@H]2O[C@@H]2O[C@@H](CO)[C@H](O)[C@@H](O)[C@@H]2NC)[C@@H](N/C(N)=N\[H])[C@@H]1O [Streptomycin]
MIC [1]: 1 µg/mL
MIC [2]: 2 µg/mL
MIC [3]: 6,000 μg/ml
MBC [4]: 3670 µg/mL
MIC [4]: 3330 µg/mL
MIC [5]: 3,000 μg/ml
MIC (wild type strains of Xcc): 1 to 2 µg/mL (≈ 1.72 to 3.44 µM)
delay of the first pustule formation (wild type strain XccW2; 50 μg/ml, wild type Xcc, citrus leaves (data not shown)): about 1 day
days to form the first yellowish halo around the pustule (index 2) (wild type strain XccW2; 100 μg/ml, co-infiltrated with wild type Xcc into citrus leaves): 10 days
suppression of symptom development (wild type strain XccW2; wild type Xcc, citrus leaves, monitored 17 days after inoculation): suppressed up to 17 days
suppression of disease progress (SR strain XccM8): did not suppress the disease progress
